Laboratory results: publication PMC10514461, “Characterization of a novel inhibitor for the New Delhi metallo-β-lactamase-4: Implications for drug design and combating bacterial drug resistance” (The Journal of Biological Chemistry, 2023)

What was measured:
NDM-1 [1] = assay type: biochemical; details: against the NDMs (NDM-1 and NDM-4)
Method: The IC50 and Ki values were determined by the direct competition between nitrocefin substrate and inhibitors under appropriately controlled experiments. Different concentrations of inhibitor ranging from 0.001 to 500 μM, a fixed concentration of 12 nM of purified protein, and 20 μM of nitrocefin substrate were used in reaction. The rate of product formation was monitored based on the absorbance at 486 nm taken at 10 s intervals for 30 min. The relative change in absorbance was evaluated as percentage inhibition, and the IC50 was determined by fitting the data to a sigmoidal dose-response curve. The enzyme inhibition constant (Ki) was derived from initial-velocity measurements by nonlinear regression via competitive-inhibition enzyme kinetics using GraphPad Prism 9.

[2] = system: Verona-integron-encoded MBL 2; details: against Verona-integron-encoded MBL 2; cited from earlier work
NDM-1 [3] = molecular target: NDM-1 (Klebsiella pneumoniae, UniProt C7C422); experiment: Steady state kinetics of nitrocefin hydrolysis, NDM-1; assay type: biochemical; details: nitrocefin as substrate
Method: (§1) Nitrocefin (Cayman, CAS 41906-86-9) was used as the chromogenic substrate for all enzyme kinetic assays. The enzymatic activity of purified NDM-1 and NDM-4 was determined spectrophotometrically at room temperature in 1X PBS, pH 7. The rate of product formation was monitored based on the absorbance at 486 nm taken at 10 s intervals for 30 min. The KM and kcat values were determined from ten different concentrations of nitrocefin ranging from 0.01 μM to 250 μM with at least four independent initial-velocity measurements using 12 nM of each enzyme and fitted by nonlinear regression using Michaelis–Menten enzyme kinetics with GraphPad Prism 9 (https://www.graphpad.com/).

NDM-4 (M154L) = molecular target: T1, NDM-4 (M154L) (Klebsiella pneumoniae, UniProt C7C422, M154L); experiment: Steady state kinetics of nitrocefin hydrolysis, NDM-4; assay type: biochemical; details: nitrocefin as substrate
T1 construct: The electron density for the polypeptide chain was continuous from Gly 42 to Arg 270; polyhistidine (with TEV site) (N, cleaved yes); made in house; host or cells: Rosetta2(DE3) E. coli
Method: as §1

NDM-1 (Klebsiella pneumoniae, UniProt C7C422), sequence (C7C422 42-270 limits assumed): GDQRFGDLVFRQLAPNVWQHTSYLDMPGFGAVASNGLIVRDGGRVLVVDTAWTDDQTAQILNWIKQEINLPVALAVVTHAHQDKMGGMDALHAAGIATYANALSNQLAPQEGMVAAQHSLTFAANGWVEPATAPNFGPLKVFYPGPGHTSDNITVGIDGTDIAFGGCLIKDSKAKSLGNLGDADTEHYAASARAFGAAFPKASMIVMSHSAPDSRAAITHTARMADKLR
T1 sequence (C7C422 42-270 M154L): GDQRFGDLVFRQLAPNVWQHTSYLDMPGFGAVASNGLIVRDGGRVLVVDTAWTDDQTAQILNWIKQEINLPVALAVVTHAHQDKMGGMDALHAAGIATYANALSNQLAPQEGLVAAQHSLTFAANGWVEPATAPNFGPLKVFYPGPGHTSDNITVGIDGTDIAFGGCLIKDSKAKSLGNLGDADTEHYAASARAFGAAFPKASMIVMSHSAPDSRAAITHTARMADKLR

Compound | potency over L-captopril (NDM-1 [1]) [fold] | enhanced inhibition activity over parent scaffold 1,2 hydroxy pyrithione [2] | kcat (NDM-1 [3]; NDM-1) [s⁻¹] | Km (NDM-1 [3]; NDM-1, 1X PBS pH 7, room temperature) [µM] | kcat (NDM-4 (M154L); NDM-4) [s⁻¹] | Km (NDM-4 (M154L); NDM-4, 1X PBS pH 7, room temperature) [µM]
O=C(O)c1cccc(=S)n1O [Compound 1, 1-hydroxypyridine-2(1H)-thione-6-carboxylic acid] | > 1600 | more than 10 fold |  |  |  | 
O=C(Cc1cccs1)N[C@@H]1C(=O)N2C(C(=O)O)=C(/C=C/c3ccc([N+](=O)[O-])cc3[N+](=O)[O-])CS[C@H]12 [Nitrocefin] |  |  | 86 ± 11 | 10.9 ± 0.6 | 70 ± 7 | 9.4 ± 0.2
